Measured values reported in patent US6475536B2, “Pharmaceutical and cosmetic formulations with antimicrobial activity” (Indena S.p.A., priority 1996, dated 2002).
In brackets after ≈: the same amount, converted by molar mass.

Assays:
Experiment in all cases: In vitro antimicrobial activity (M.I.C.)
Type in all cases: cell-based
[1] = test system: Candida albicans ATCC 10231; details: ATCC10231, average values
Experimental: (§1) The first is prepared from Krameria triandra and from Mesua ferrea. The activity, expressed in M.I.C. (minimum inhibitory concentration), was evaluated by normal terms within the art. Moreover, one of ordinary skill in the art with little or no experimentation can optimize the results for a particular antimicrobial compound or mixtures of compounds.

[2] = test system: Trichophyton mentagrophytes 193; details: average values
Experimental: as §1

[3] = test system: Staphilococcus aureus ATCC6538; details: average values
Experimental: as §1

[4] = test system: Pseudomonas aeruginosa CNUR 4; details: CNUR4, average values
Experimental: as §1

Acinetobacter cal. OSMPV = details: average values
Experimental: as §1

[5] = test system: Staphilococcus epidermis CPHL; details: average values
Experimental: as §1

Propionibacterium acnes = details: Cutibacterium acnes, average values
Experimental: as §1

[6] = test system: Staphilococcus aureus MPR5; details: average values
Experimental: as §1

[7] = test system: Streptococcus feaecalis LEP Br; details: average values
Experimental: as §1

Bacteroides fragilis = details: average values
Experimental: as §1

Escherichia coli CNUR 1 = details: CNUR1, average values
Experimental: as §1

SMILES	MIC [1]	MIC [2]	MIC [3]	MIC [4]	MIC (Acinetobacter cal. OSMPV)	MIC [5]	MIC (Propionibacterium acnes)	MIC [6]	MIC [7]	MIC (Bacteroides fragilis)	MIC (Escherichia coli CNUR 1)
Clc1ccc(COC(Cn2ccnc2)c2ccc(Cl)cc2Cl)c(Cl)c1 (centres unmarked) [miconazole]	2 µg/mL (≈ 4.81 µM)	2 µg/mL (≈ 4.81 µM)	–	–	–	–	–	–	–	–	–
CN1CCN(c2c(F)cc3c(=O)c(C(=O)O)cn4c3c2SCC4)CC1 [rufloxacin]	–	–	0.5 µg/mL (≈ 1.38 µM)	32 µg/mL (≈ 88.1 µM)	2 µg/mL (≈ 5.5 µM)	1 µg/mL (≈ 2.75 µM)	32 µg/mL (≈ 88.1 µM)	1 µg/mL (≈ 2.75 µM)	16 µg/mL (≈ 44 µM)	32 µg/mL (≈ 88.1 µM)	0.51 µg/mL (≈ 1.4 µM)
